Where a SMILES comes first, the peptide text is derived from it.
How the values were obtained:
importin β = experiment: Biochemical pulldown (GFP-Trap) for DPR-induced Rango-importin β dissociation; assay type: binding, human; conditions: increasing concentrations of DPRs
Procedure: GFP-Trap magnetic beads (Chromotek, Planegg-Martinsried, Germany) were washed and resuspended in TTBS. At the end of incubation, 8 µl bead suspension was added to each sample and mixed by rotation for 15 min. The supernatant was removed and beads washed 3 times with TTBS before boiling in 20 µl SDS-PAGE sample buffer with 2% β-mercaptoethanol. Samples were separated by SDS-PAGE and anti-GFP western blot performed as detailed below to detect Rango. After detecting the ECL signal, membranes were stained with Coomassie Brilliant R250 to detect importin β. Background-subtracted signals were determined by Image Lab 6.01 (BioRad) and the Rango ECL signal normalized to the importin β signal within each lane.
Supernatant and pellet fractions (for all 5 DPRs, and control/buffer only) were prepared as in the nuclear transport assays, by adding 100 µM 10mers to 2.5 mg/ml HEK lysate in 100 µL TRB. Supernatants were boiled in Laemmli (BioRad) for 5 min. Pellets were boiled for 15 min followed by sonication in order to fully disperse aggregates for SDS-PAGE. Equal volumes of supernatant and pellet fractions were run on 4–12% Bolt Bis-Tris Plus gels (ThermoFisher), transferred to nitrocellulose membrane using an iBlot2 dry blotting system (ThermoFisher). Protein loading was analyzed by BLOT-Faststain (G-biosciences, St. Louis, MO), according to the manufacterers’ instructions. For immunodetection, membranes were blocked with 5% non-fat milk in TBST and probed by sequential incubation with the primary antibodies as detailed in the table below. Detection was by HRP-conjugated secondary antibodies/chemiluminescence using an ImageQuant LAS 4000 system (GE, Chicago, IL). To permit sequential probing of membranes without stripping, signals were quenched by incubation with prewarmed 30% H20_2 for 20 min ([Sennepin et al., 2009]). Band intensities were measured by ImageQuant software. For pellet vs. supernatant fractions, all were expressed as percent untreated control. For blots in Figure 1E, samples were run on 4–20% SDS PAGE minigels (ThermoFisher) and blotted to PVDF membranes (Immun-Blot PVDF, Bio-Rad) using the Bio-Rad TransBlot Turbo apparatus, and probed as above. The chemiluminescence signal was captured with a Bio-Rad ChemiDoc XRS+ digital imaging system.

importin β (KPNB1) = target: T1, importin β (KPNB1) (Homo sapiens, UniProt Q14974); experiment: Rango FRET detection of importin β-Rango dissociation; assay type: binding; conditions: DPR 10-mers added to importin β-bound Rango
T1 construct: pET30a 6His-S-Importin β(1-876); 6His (N); S-tag (N); made in house; host or cells: E. coli BL21(DE3)
Procedure: Full-length human importin β was expressed from pET30a-WT importin β (pKW485; [Chi et al., 1997]) at the Protein Expression Laboratory (PEL, National Cancer Institute, Frederick, MD). The transformed BL21DE3 cells were grown at 37°C in an 80L Bioflow 500 bioreactor (New Brunswick Scientific, Edison, NJ) until OD600nm = 0.6, cooled to 22°C and the expression was induced with 0.3 mM IPTG. After 12 hr induction, cells were harvested with the CARR continuous flow centrifuge and lysed in PBS with 10 mM imidazole and 5 mM TCEP with a 110EH Microfluidizer (Microfluidics, Westwood, MA) using 2 passes at 10,000 PSI under chilled conditions. The lysates were flash-frozen in liquid nitrogen and stored at −80°C. After thawing, the lysates were clarified and incubated with HIS-Select HF Nickel Affinity beads. The beads were washed with 10 mM imidazole/PBS and the protein eluted with 200 mM imidazole/PBS before dialysis in XB. The purified importin β was combined with a freshly thawed aliquot of Rango2-α1 (pK188) at 2.5:1 molar ratio ratio (12.5 µM importin β, 5 µM Rango) and supplemented with 3% glycerol. Measurement of Rango fluorescence emission in a spectrometer (see below) was used to verify the FRET-off state of the Rango/importin β mixture before freezing.
The expression of zz-RCC1 was induced at OD600nm = 0.4, followed by incubation at 22°C for 4 hr. The cells were washed with PBS, 10 mM Imidazole, 1 mM MgCl2, 5 mM TCEP, 0.2 mM AEBSF, pH 8.0, and lysed by ice-cold microfluidizer. The clarified lysates were used to isolate the zz-RCC1 proteins on HIS-Select HF Nickel Affinity beads, as described above. Proteins eluted with 0.2M imidazole/PBS were dialyzed in PBS before storage. The zz-RanQ69L (pKW1234; pK1097) was expressed from BL21DE3 cells at PEL in an 80L bioreactor, using conditions described for importin β above, except that expression was induced with 0.3 mM IPTG at 37°C for 3 hr, and lysis was performed in PBS with 10 mM Imidazole, 5 mM TCEP, 2 mM MgCl2, and 1 mM GTP. The lysates were clarified and bound to HIS-Select HF Nickel Affinity beads (Millipore Sigma). […]
FRET assays for DPR-induced dissociation of the importin β-Rango complex were performed using a mix of 5 µM Rango-2/α1 (pK188) and 12.5 µM importin β (pKW485) prepared as described above. […] Peak emissions were recorded at 480 nm (donor) and 535 nm (acceptor) in all samples, and background emission subtracted at the same wavelengths in the blank. The FRET signal was calculated as the ratio of background-subtracted acceptor/donor emissions. The signal detected in the untreated sample (20 nM Rango and 50 nM importin β-only, the lowest FRET), was then subtracted from the resulting values. […]

T1 sequence (Q14974 whole entry): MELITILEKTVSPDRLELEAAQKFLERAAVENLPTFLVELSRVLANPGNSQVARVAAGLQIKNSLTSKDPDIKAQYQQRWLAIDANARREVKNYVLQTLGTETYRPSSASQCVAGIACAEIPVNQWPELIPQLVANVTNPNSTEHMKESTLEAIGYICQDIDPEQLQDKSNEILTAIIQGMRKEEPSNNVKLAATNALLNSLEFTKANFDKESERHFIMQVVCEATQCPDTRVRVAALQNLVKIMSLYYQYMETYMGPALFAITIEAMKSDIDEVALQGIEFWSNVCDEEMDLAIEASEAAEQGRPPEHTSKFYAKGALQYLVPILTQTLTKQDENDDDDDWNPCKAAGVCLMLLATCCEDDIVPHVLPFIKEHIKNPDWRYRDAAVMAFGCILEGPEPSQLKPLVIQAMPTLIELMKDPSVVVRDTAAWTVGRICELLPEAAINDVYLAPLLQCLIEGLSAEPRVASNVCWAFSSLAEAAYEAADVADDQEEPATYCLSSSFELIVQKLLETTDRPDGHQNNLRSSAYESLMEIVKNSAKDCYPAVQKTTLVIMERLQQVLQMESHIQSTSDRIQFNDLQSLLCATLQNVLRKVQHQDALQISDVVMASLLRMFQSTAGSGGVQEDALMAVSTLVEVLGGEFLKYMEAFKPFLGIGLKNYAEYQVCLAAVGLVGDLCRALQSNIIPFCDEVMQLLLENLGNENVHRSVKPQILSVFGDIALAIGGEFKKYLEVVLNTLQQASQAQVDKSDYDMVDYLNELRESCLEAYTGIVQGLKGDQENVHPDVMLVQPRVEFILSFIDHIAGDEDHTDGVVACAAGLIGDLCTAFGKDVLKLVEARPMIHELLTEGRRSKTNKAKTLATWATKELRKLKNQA

Compound: GPGPGPGPGPGPGPGPGPGPKC [GP10, Synthetic 10-mer GP dipeptide repeat with C-terminal lysine and cysteine]
- Displacement of importin β from Rango (GFP nanobody bead co-immunoprecipitation) (importin β): little if any effect
- Effect on Rango FRET (importin β (KPNB1)): did not affect Rango FRET

Compound: N=C(N)NCCC[C@H](NC(=O)[C@@H]1CCCN1C(=O)[C@H](CCCNC(=N)N)NC(=O)[C@@H]1CCCN1C(=O)[C@H](CCCNC(=N)N)NC(=O)[C@@H]1CCCN1C(=O)[C@H](CCCNC(=N)N)NC(=O)[C@@H]1CCCN1C(=O)[C@H](CCCNC(=N)N)NC(=O)[C@@H]1CCCN1C(=O)[C@H](CCCNC(=N)N)NC(=O)[C@@H]1CCCN1C(=O)[C@H](CCCNC(=N)N)NC(=O)[C@@H]1CCCN1C(=O)[C@H](CCCNC(=N)N)NC(=O)[C@@H]1CCCN1C(=O)[C@H](CCCNC(=N)N)NC(=O)[C@@H]1CCCN1C(=O)[C@H](CCCNC(=N)N)NC(=O)[C@@H]1CCCN1)C(=O)O [PR10] (H-PRPRPRPRPRPRPRPRPRPR-OH; N-terminus and C-terminus assumed)
- Displacement of importin β from Rango (GFP nanobody bead co-immunoprecipitation) (importin β): dose-dependent displacement of importin β from the sensor
- Effect on Rango FRET (importin β (KPNB1)): dose-dependent increase in FRET

Compound: PA10: Synthetic 10-mer PA dipeptide repeat with C-terminal lysine and cysteine (PAPAPAPAPAPAPAPAPAPAKC)
- Displacement of importin β from Rango (GFP nanobody bead co-immunoprecipitation) (importin β): little if any effect
- Effect on Rango FRET (importin β (KPNB1)): did not affect Rango FRET

Compound: GA10: Synthetic 10-mer GA dipeptide repeat with C-terminal lysine and cysteine (GAGAGAGAGAGAGAGAGAGAKC)
- Displacement of importin β from Rango (GFP nanobody bead co-immunoprecipitation) (importin β): little if any effect
- Effect on Rango FRET (importin β (KPNB1)): did not affect Rango FRET

Source: paper PMC7051184, “C9orf72 arginine-rich dipeptide repeat proteins disrupt karyopherin-mediated nuclear import” (eLife, 2020)
